# Source: PMC4420865 (Journal of Cerebral Blood Flow & Metabolism, 2015)
# pEC50, pKi: −log10 of the molar value.
# Key:
# human Pgp = human Pgp (Homo sapiens, UniProt P08183); test: Inhibition of transport of [^3H]verapamil by human Pgp; type: biochemical
# Pgp at the human BBB [1] = conditions: cited from earlier work
# [2] = Adverse reactions during tariquidar infusion; type: in vivo, human
# Pgp at the human BBB [3] = conditions: humans, tariquidar 6 mg/kg body weight; cited from earlier work
# [4] = cited from earlier work
# [5] = Tariquidar plasma concentrations during PET scan 2; type: in vivo, human
# human Pgp, sequence (P08183 whole entry): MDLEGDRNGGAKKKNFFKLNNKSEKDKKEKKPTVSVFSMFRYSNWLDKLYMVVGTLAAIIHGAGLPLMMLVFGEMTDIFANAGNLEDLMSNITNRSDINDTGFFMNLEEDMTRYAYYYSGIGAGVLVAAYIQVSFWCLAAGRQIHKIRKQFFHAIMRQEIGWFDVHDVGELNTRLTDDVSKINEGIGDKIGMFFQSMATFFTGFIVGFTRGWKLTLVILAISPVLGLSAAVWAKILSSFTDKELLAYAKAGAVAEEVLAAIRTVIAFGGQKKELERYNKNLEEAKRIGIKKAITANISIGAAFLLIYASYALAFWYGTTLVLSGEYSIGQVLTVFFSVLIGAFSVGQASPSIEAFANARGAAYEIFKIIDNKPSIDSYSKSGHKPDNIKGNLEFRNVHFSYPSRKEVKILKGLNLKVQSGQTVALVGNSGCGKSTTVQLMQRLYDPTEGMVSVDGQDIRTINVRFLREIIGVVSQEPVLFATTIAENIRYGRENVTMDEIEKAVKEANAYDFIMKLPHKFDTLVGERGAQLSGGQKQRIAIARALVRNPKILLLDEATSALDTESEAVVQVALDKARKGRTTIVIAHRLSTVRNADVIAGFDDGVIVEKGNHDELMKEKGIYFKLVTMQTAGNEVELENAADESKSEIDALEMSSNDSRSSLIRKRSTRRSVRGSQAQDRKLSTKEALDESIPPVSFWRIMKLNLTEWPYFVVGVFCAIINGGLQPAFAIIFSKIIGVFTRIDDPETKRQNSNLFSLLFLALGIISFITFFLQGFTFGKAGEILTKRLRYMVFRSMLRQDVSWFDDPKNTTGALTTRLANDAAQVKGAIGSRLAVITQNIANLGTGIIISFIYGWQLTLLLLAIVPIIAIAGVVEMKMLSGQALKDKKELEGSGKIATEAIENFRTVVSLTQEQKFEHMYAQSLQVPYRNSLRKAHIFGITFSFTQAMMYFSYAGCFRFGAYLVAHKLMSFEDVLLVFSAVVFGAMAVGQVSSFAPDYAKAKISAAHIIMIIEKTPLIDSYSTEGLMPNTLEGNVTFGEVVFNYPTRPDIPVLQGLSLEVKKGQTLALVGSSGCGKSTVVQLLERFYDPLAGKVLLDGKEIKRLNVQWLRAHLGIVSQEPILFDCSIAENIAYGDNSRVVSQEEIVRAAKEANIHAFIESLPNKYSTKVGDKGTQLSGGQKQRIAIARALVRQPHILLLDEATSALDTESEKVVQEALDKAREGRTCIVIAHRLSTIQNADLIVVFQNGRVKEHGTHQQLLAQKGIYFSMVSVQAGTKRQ
structure (smiles),measurement,setting,value
COc1cc2c(cc1OC)CN(CCc1ccc(NC(=O)c3cc(OC)c(OC)cc3NC(=O)c3cnc4ccccc4c3)cc1)CC2 [tariquidar],pKi,human Pgp,8.07
same,Increase in brain distribution of (R)-[^11C]verapamil,"Pgp at the human BBB [1]; humans, tariquidar 6 mg/kg body weight",129%
same,pEC50,"Pgp at the human BBB [1]; read-out: Previously estimated EC50 of tariquidar in humans, enhancement of brain uptake of (R)-[^11C]verapamil",6.06
same,Subjects with mild adverse reactions most likely related to tariquidar,"[2]; five healthy men, mean dose 5.9±1.0 mg/kg i.v. infusion",four out of five subjects
same,"Dizziness, N subjects",[2]; of five subjects,1
same,"Metallic taste in the mouth, N subjects",[2]; of five subjects,3
same,Increase in brain distribution of [^11C]N-desmethyl-loperamide,Pgp at the human BBB [3],223%
same,Fraction of unbound tariquidar in human plasma,[4],0.0063±0.0021
same,Mean tariquidar plasma concentration during the PET scan,"[5]; continuous i.v. infusion, mean dose 5.9±1.0 mg/kg, mean±s.d.","2,873±517 nmol/L"
same,"Mean tariquidar plasma concentration, times higher than in previous study",[5]; versus previous study ref 7,2–3 times
